Here are results for 111 molecules from the OPERA property sets (Mansouri et al. 2018).

The molecule `CCCNCC(O)COc1ccc(-c2ncc(-c3cccs3)[nH]2)cc1` (stereo unspecified) displayed a logP of 2.84. With `Oc1ccc2cc(O)ccc2c1` the figure was 1.9. With `CC(=O)c1ccc(S(=O)(=O)NC(=O)NC2CCCCC2)cc1` the figure was 2.44. On to `CCCCCCCCCCCCCCCCCCCC(=O)O`, for which the lipophilicity (logP) is 9.29.

For `CC(=O)Oc1cc(OC(C)CCCc2ccccc2)cc2c1C1CC(O)CCC1C(C)N2C` (stereo unspecified), the lipophilicity (logP) stood at 5.72. Regarding `CCCCOCC(O)Cn1ccnc1[N+](=O)[O-]` (stereo unspecified), the logP came out at 1.11.

The molecule `O=c1nc(-c2ccccc2)c2ccccc2[nH]1` came in with a logP of 1.91. The molecule `O=C1C2C3C=CC(C3)C2C(=O)N1CCCCN1CCN(c2ncccn2)CC1` (stereo unspecified) returned a logP of 1.36. With `CC1CCC(c2ccccc2)(N2CCCCC2)CC1` (stereo unspecified) the figure was 5.66. On to `CCN(CCO)Cc1cccc(COc2ccccc2)c1`, for which the logP stood at 3.04. For `C=Cc1ccc(C(=O)O)cc1`, the logP worked out at 2.18. As for `CCN1CC(C(O)C(CC2CCCCC2)NC(=O)C(Cc2cnc[nH]2)NC(=O)C(Cc2ccc(OC)cc2)NC(=O)N2CCOCC2)OC1=O` (stereo unspecified), the logP stood at 2.11. With `COC(=O)C(C(=O)OC)=C1SCCS1` the figure was 1.51. With `CCCc1ccc(N)cc1` the figure was 2.4.

For the molecule `CC1=CC(=O)C(C(C)C)=CC1=O`, the logP was determined as 2.2. With `O=C(NN1CC=CCC1)c1ccco1` the figure was 0.81; with `COC1CC(OC2CCC3(C)C(CCC4C3CCC3(C)C(C5=CC(=O)OC5)C(O)CC43O)C2)OC(C)C1O` (stereo unspecified), 0.59; with `OC1(c2ccccc2Cl)CCCCC1n1cncn1` (stereo unspecified), 2.68. `O=C(c1cccc(C(F)(F)F)c1)c1ccc2n1CCC2C(=O)O` (stereo unspecified): the log partition coefficient (logP) is 3.69.

Regarding `CCN(CC)C(C)CCCC(=O)Nc1c(C)cccc1C` (stereo unspecified), the logP came to 2.64.

Molecule `C=C1C(=O)OC2CC3(C)CCCC(C)C3=CC12` (stereo unspecified) had a log partition coefficient (logP) of 3.38. On to `Cc1ncc(CO)c(CO)c1O`, for which the log partition coefficient (logP) is -0.77. With `Cc1ccc(Br)cc1N=C1NCCN1` the figure was 1.94.

For the molecule `O=C(COc1ccc(OCCNCC(O)COc2ccccc2)cc1)N1CCc2ccccc2C1` (stereo unspecified), the lipophilicity (logP) was found to be 3.6.

Molecule `O=C(O)Cc1cccc2ccccc12` returned a logP of 2.24.

Turning to `O=C(CN1CCCCC1)Nc1ccc(Cl)c(Cl)c1`, the lipophilicity (logP) was 3.65. Take `C1CC2OC2CC1C1CO1` (stereo unspecified): the logP was 0.44. Regarding `O=c1ccc2ccc3occc3c2o1`, the logP came out at 2.08. On to `CC(C)(C)c1cccc(C2C(=O)c3ccccc3C2=O)c1`, for which the logP is 4.88. With `Brc1cccc(N=C2NCCN2)c1Br` the figure was 2.16; with `N[C@@H](Cc1cnccn1)C(=O)O`, -2.79.

In turn, `CCCOC(=O)CNC(=O)CCCCSc1ncnc2nc[nH]c12` came in with a lipophilicity (logP) of 1.37.

Regarding `OC(Cn1ccnc1)(c1ccc(F)cc1)c1cccc(-c2ccncc2)c1` (stereo unspecified), the logP came to 2.91.

`CC(C)c1cccc(C(C)C)c1NC1=NCCN1` yielded a lipophilicity (logP) of 3.04. Take `CCOC(=O)OCCC(SC(=O)OCC)=C(C)N(C=O)CC1=C(C(=O)OCOC(=O)C(C)(C)C)N2C(=O)C(NC(=O)C(=NOC)c3csc(N)n3)C2SC1` (stereo unspecified): the logP is 3.34.

In turn, `C=C1C(=O)OC2C=C(C)C3(O)C=CC(C)(CC(OC(=O)C(=CC)COC(C)=O)C12)O3` (stereo unspecified) yielded a logP of 1.19.

As for `Cc1cccc(C)c1NC(=O)C(C)N(C)C` (stereo unspecified), the logP is 1.53. Turning to `CCCCOC(=O)COc1cc(Cl)c(Cl)cc1Cl`, the lipophilicity (logP) amounted to 4.81. The molecule `CNC(=S)NCCSCc1cncn1C` came in with a lipophilicity (logP) of 0.32. With `Cc1cccc(C)c1OC(=O)c1ccc(N)cc1O`, the logP was found to be 3.88.

The molecule `C[C@@H]1Cc2c(Cl)cc(C(=O)N[C@@H](Cc3ccccc3)C(=O)O)c(O)c2C(=O)O1` came in with a lipophilicity (logP) of 4.74. Molecule `CCOC(=O)C(CC(C)C)NC(=O)CNC(=O)CNC(=O)CCCCSc1ncnc2nc[nH]c12` (stereo unspecified) had a lipophilicity (logP) of 1.07. Take `CCc1ccc2cc3ccccc3cc2c1`: the logP worked out at 5.85. On to `COc1cc(Cc2cnc(N)nc2N)ccc1C(C)C`, for which the logP was determined as 3.14.

With `Cc1cnc(NS(=O)(=O)c2ccc(N)cc2)nc1`, the lipophilicity (logP) is 0.34. Take `O=C(COc1ccc(OCCNCC(O)COc2ccccc2)cc1)NCc1ccccc1` (stereo unspecified): the logP was found to be 3.2.

`CCN1CC(C(O)C(CC2CCCCC2)NC(=O)C(Cc2cc[nH]n2)NC(=O)C(CC(=O)N2CCOCC2)Cc2ccccc2)OC1=O` (stereo unspecified) returned a logP of 2.49. With `ClC(Cl)=C(c1ccc(Cl)cc1)c1ccc(Cl)cc1` the figure was 6.51; with `N=C(N)NN=Cc1ccccc1`, 1.18. Consider `CCOc1ccc(Cc2cnc(N)nc2N)cc1OCC`, for which the logP was found to be 1.72. The molecule `Clc1ccc(Br)cc1NC1=NCCN1` yielded a lipophilicity (logP) of 2.05. With `Cc1cc(C)c(O)c(C)c1` the figure was 2.73. With `CCCN1C(=O)SC(=Cc2ccc([N+](=O)[O-])o2)C1=O` the figure was 2.4. On to `NC1CC1c1ccccc1` (stereo unspecified), for which the logP worked out at 1.58. Molecule `CCCCC(CCCC)C(=O)O` had a lipophilicity (logP) of 3.2. With `Cn1c([N+](=O)[O-])cnc1/C=C/c1ccnc(N)n1` the figure was 0.85; with `COc1ccc(C(=O)CC(C)CC(=O)O)cc1Cl` (stereo unspecified), 2.6. Turning to `COC(=O)C=COc1ccccc1Cl`, the logP is 3.02. `CNC(=O)COc1ccc(OCC(O)CNC(C)C)cc1` (stereo unspecified): the logP is 0.56. `C=C1C(=O)O[C@H]2[C@H]1[C@H](OC(=O)/C(C)=C\C)CC(=C)[C@@H]1[C@H](O)[C@H]3O[C@@]3(C)[C@@]12O` came in with a lipophilicity (logP) of 1.69. With `COC(=O)c1ccc(CN(C)N=O)cc1` the figure was 1.21; with `CCCCCCCCC=CCCCCCCCC(=O)O`, 7.64. Molecule `CC(=O)O[C@H]1C[C@H](O[C@H]2[C@@H](O)C[C@H](O[C@H]3[C@@H](O)C[C@H](O[C@H]4CC[C@@]5(C)[C@H](CC[C@@H]6[C@@H]5C[C@@H](O)[C@]5(C)[C@@H](C7=CC(=O)OC7)CC[C@]65O)C4)O[C@@H]3C)O[C@@H]2C)O[C@H](C)[C@H]1O` came in with a logP of 1.97. On to `Cc1ccc(N2Cn3c(nc4ccccc4c3=O)C2C)cc1` (stereo unspecified), for which the logP is 2.16. The molecule `CCCNC(=O)COc1ccc(OCCNCC(O)COc2ccccc2)cc1` (stereo unspecified) displayed a logP of 2.4. With `CCC1OC(=O)C(C)C(OC2CC(C)(OC)C(OC=O)C(C)O2)C(C)C(OC2OC(C)CC(N(C)C)C2O)C(C)(O)CC(C)C(=O)C(C)C(O)C1C` (stereo unspecified) the figure was 3.05; with `CCOC(=O)CC[C@H](NC(=O)c1ccc(N(C)Cc2cnc3nc(N)nc(N)c3n2)cc1)C(=O)OCC`, 0.98. `CC(C)NCC(O)COc1cccc(CC(N)=O)c1` (stereo unspecified) registered a lipophilicity (logP) of 0.22. The molecule `C=CC(=O)OCCOCCOCCOC(=O)C=C` registered a log partition coefficient (logP) of 0.96. For `Cc1ccc(CCN)cc1`, the logP was 1.83.

`CCN(CC)C(C)CC(=O)Nc1c(C)cccc1C` (stereo unspecified) came in with a log partition coefficient (logP) of 2.63. In turn, `Cc1ccc(Cl)c(N=C2NCCN2)c1` had a logP of 1.83. As to `Cc1ccc(N(CCO)CCO)cc1`, the logP was 1.09.

In the case of `COc1cc(C)c(/C=C/C(C)=C/C=C/C(C)=C/C(=O)O)c(C)c1C`, the logP turned out to be 6.4. For `CCN1CC(C(O)C(CC2CCCCC2)NC(=O)C(Cc2cnc[nH]2)NC(=O)C(Cc2ccc(OC)cc2)NC(=O)N2CC(O)C(O)C2)OC1=O` (stereo unspecified), the logP stood at 1.22.

The molecule `OCC1c2ccccc2-c2ccccc21` had a logP of 2.89. As to `CCCCCc1cc(O)c2c(c1)OC(C)(C)C1CC=C(C)CC21` (stereo unspecified), the logP came to 7.41. With `CN(C)CCC(c1ccccc1)c1ccc(C(C)(C)C)cc1` (stereo unspecified) the figure was 5.1. Consider `c1ccc(-c2nccs2)cc1`, for which the logP turned out to be 2.77.

For `CCC(CC)(C(=O)NC(N)=O)C(=O)OCc1ccccc1`, the logP is 2.74. With `CN(Cc1ccc(Cl)cc1)N=Nc1ccc(C(=O)O)cc1` the figure was 4.85.

`COc1ccc(CCNCC(O)COc2ccc(-c3ncc(Cl)[nH]3)cc2)cc1OC` (stereo unspecified) yielded a logP of 2.4. Regarding `CCCCCCC(C)(C)c1cc(O)c2c(c1)OC(C)(C)[C@@H]1CC=C(CO)C[C@@H]21`, the log partition coefficient (logP) was 7.44. Molecule `O=C(COc1ccc(OCCNCC(O)COc2ccccc2)cc1)N1CCCCC1` (stereo unspecified) yielded a lipophilicity (logP) of 2.6. As for `CCCCC(CCC)C(=O)O` (stereo unspecified), the logP stood at 3.01. Molecule `O=C1CC(Oc2ccc(C(=O)CCc3ccccc3)cc2)N1` (stereo unspecified) gave a log partition coefficient (logP) of 2.48. With `OCc1ccc(C(O)(Cn2ccnc2)c2ccc(-c3ccncc3)cc2)cc1` (stereo unspecified) the figure was 2.4; with `CCN(CC)CCCCCCC(=O)Nc1c(C)cccc1C`, 3.48; with `N#Cc1ccc(C[Se]CCC(=O)O)cc1`, 1.37. With `CC(=O)OCC1OC(n2ccc(N)nc2=O)C(OC(C)=O)C1OC(C)=O` (stereo unspecified) the figure was -0.8; with `C#CCC(O)(c1cccnc1)C1CCCCC1` (stereo unspecified), 2.09. In turn, `O=[N+]([O-])c1cn(CCN2CCOCC2)cn1` yielded a logP of -0.38. With `CCCCOC(=O)c1cc(=O)[nH]c(=O)[nH]1` the figure was 1.06; with `CC(C)c1cc(C(C)C)cc(C2C(=O)c3ccccc3C2=O)c1`, 5.96; with `CNC(=O)COc1cccc(OCC(O)CNC(C)C)c1` (stereo unspecified), 0.35.

On to `Nc1nnc(CCc2ccccc2)o1`, for which the log partition coefficient (logP) worked out at 1.19.

Regarding `CC1(C)CC(N)CC(C)(C)N1O`, the logP came to 0.56. `Cn1c([N+](=O)[O-])cnc1C=Cc1ccncn1` showed a logP of 0.85. `OC(CN1CCCC1)(c1ccc(F)cc1)c1ccc(-c2ccncc2)cc1` (stereo unspecified) had a logP of 3.84. `O=C1c2ccccc2C(=O)C1c1ccc(-c2ccccc2)cc1` gave a log partition coefficient (logP) of 4.79. `C=CCC(NC(=O)C(Cc1ccc(OC)cc1)NS(=O)(=O)N1CCOCC1)C(=O)NC(CC1CCCCC1)C(=O)C(F)(F)C(=O)NCCN1CCOCC1` (stereo unspecified) displayed a logP of 2.73. `COc1cccc(/C=C/C(=O)O)c1` yielded a logP of 2.37.

`CC(C)(C)c1ccc(C2C(=O)c3ccccc3C2=O)cc1` returned a lipophilicity (logP) of 4.88.

As to `OC(CCN1CCCCC1)(c1ccccc1)C1CCCCC1` (stereo unspecified), the logP is 4.49. `CCc1cccc2ccccc12` showed a logP of 4.4. For `CCNC(=O)c1cc(Cl)cc(C)c1O`, the logP is 3.55. The molecule `COC(=O)Nc1ccc(Cl)c(Cl)c1` returned a logP of 3.32. Turning to `CCCCCCCCc1ccccc1`, the logP was 6.3.

`Nc1ncnc2c1ncn2C1C=CC(CO)O1` (stereo unspecified) showed a logP of -0.5. In turn, `Cc1cccc(C)c1NC(=O)C(C)N` (stereo unspecified) came in with a logP of 0.76. `CCc1ccc(C2C(=O)c3ccccc3C2=O)cc1` returned a log partition coefficient (logP) of 3.92.
